Data reported in US20140031227A1, “HERBICIDAL COMPOSITIONS COMPRISING 4-AMINO-3-CHLORO-5-FLUORO-6-(4-CHLORO-2-FLUORO-3-METHOXYPHENYL) PYRIDINE-2-CARBOXYLIC ACID OR A DERIVATIVE THEREOF AND GLYPHOSATE OR GLUFOSINATE” (DOW AGROSCIENCES LLC, priority 2012, published 2014).
Where a name gives a salt, the structure may show the parent alone.

Experiments:
Format in all cases: in vivo
[1] = test system: SETFA (Setaria faberi Herrm., giant foxtail); assay: Example IV postemergence foliar-applied mixtures, general weed control, greenhouse: SETFA; settings: glyphosate DMA salt (Durango DMA) alone
Experimental: (§1) Seeds or nutlets of the desired test plant species were planted in Sun Gro Metro-Mix® 360 planting mixture, which typically has a pH of 6.0 to 6.8 and an organic matter content of about 30 percent, in plastic pots with a surface area of 84.6 square centimeters (cm^2). […] The plants were grown for 7-31 days (d) in a greenhouse with an approximate 15 hour (h) photoperiod which was maintained at about 23-29° C. during the day and 22-28° C. during the night. Nutrients (Peters Excel® 15-5-15 5-Ca 2-Mg) and water were added on a regular basis and supplemental lighting was provided with overhead metal halide 1000-Watt lamps as necessary. The plants were employed for testing when they reached the first, second, or third true leaf stage.
(§2) Treatments consisted of the acid or the benzyl ester of 4-amino-3-chloro-5-fluoro-6-(4-chloro-2-fluoro-3-methoxy-phenyl)pyridine-2-carboxylic acid (Compound A), each formulated as an SC, and various herbicidal components alone and in combination. Forms of compound A were applied on an acid equivalent basis.
(§3) Other herbicidal components were applied on an acid equivalent or active ingredient basis and included the 5-enolpyruvylshikimate-3-phosphate synthase (EPSPS)-inhibiting herbicide, glyphosate dimethylamine salt, formulated as Durango DMA® and the glutamine synthase (GS)-inhibiting herbicide, glufosinate ammonium, formulated as Ignite® 280.
(§4) For treatments comprised of formulated compounds, measured amounts of compounds were placed individually in 25 mL glass vials and diluted in a volume of 1.25% (v/v) Agri-dex crop oil concentrated to obtain 12× stock solutions. […] Application solutions were prepared by adding an appropriate amount of each stock solution (typically 1 mL) and diluted to the appropriate final concentrations with the addition of 10 mL of an aqueous mixture of 1.25% (v/v) Agri-dex crop oil concentrate so that the final spray solutions contained 1.25% (v/v) Agri-dex crop oil concentrate.
(§5) All stock solutions and applications solutions were visually inspected for compound compatibility prior to application. Compound requirements are based upon a 12 mL application volume at a rate of 187 liters per hectare (L/ha). Formulated compounds were applied to the plant material with an overhead Mandel track sprayer equipped with 8002E nozzles calibrated to deliver 187 L/ha over an application area of 0.503 square meters (m^2) at a spray height of 18 to 20 inches (46 to 50 cm) above the average plant canopy height. Control plants were sprayed in the same manner with the solvent blank.
(§6) The treated plants and control plants were placed in a greenhouse as described above and watered by sub-irrigation to prevent wash-off of the test compounds. After approximately 3 weeks, the condition of the test plants as compared with that of the untreated plants was determined visually and scored on a scale of 0 to 100 percent where 0 corresponds to no injury or growth inhibition and 100 corresponds to complete kill.
(§7) Colby's equation was used to determine the herbicidal effects expected from the mixtures (Colby, S. R. 1967. Calculation of the synergistic and antagonistic response of herbicide combinations. Weeds 15:20-22.) .

[2] = test system: DIGSA (Digitaria sanguinalis (L.) Scop., large crabgrass); assay: Example IV postemergence foliar-applied mixtures, general weed control, greenhouse: DIGSA; settings: glyphosate DMA salt (Durango DMA) alone, 210 gae/ha
Experimental: as §1, §2, §3, §4, §5, §6, §7

[3] = test system: VIOTR (Viola tricolor L., wild violet); assay: Example IV postemergence foliar-applied mixtures, general weed control, greenhouse: VIOTR; settings: glyphosate DMA salt (Durango DMA) alone
Experimental: as §1, §2, §3, §4
All stock solutions and applications solutions were visually inspected for compound compatibility prior to application. Compound requirements are based upon a 12 mL application volume at a rate of 187 liters per hectare (L/ha). […]
as §6, with “kill. […]” for “kill.”

[4] = test system: CHEAL (Chenopodium album L., common lambsquarters); assay: Example IV postemergence foliar-applied mixtures, general weed control, greenhouse: CHEAL; settings: glyphosate DMA salt (Durango DMA) alone
Experimental: as §1, §2, §3, §4, §5, §6, §7

[5] = test system: IPOHE (Ipomoea hederacea Jacq., ivyleaf morningglory); assay: Example I postemergence foliar-applied mixtures, direct seeded rice weeds, greenhouse: IPOHE; settings: glyphosate DMA salt (Durango DMA) alone, 105 gae/ha
Experimental: (§8) Seeds or nutlets of the desired test plant species were planted in a soil matrix prepared by mixing a loam or sandy loam soil (e.g., 28.6 percent silt, 18.8 percent clay, and 52.6 percent sand, with a pH of about 5.8 and an organic matter content of about 1.8 percent) and calcareous grit in an 80 to 20 ratio. The soil matrix was contained in plastic pots with a volume of 1 quart and a surface area of 83.6 square centimeters (cm^2). […] The plants were grown for 8-22 days in a greenhouse with an approximate 14 hr photoperiod which was maintained at about 29° C. during the day and 26° C. during the night. Nutrients (Peters Excel® 15-5-15 5-Ca 2-Mg and iron chelate) were applied in the irrigation solution as needed and water was added on a regular basis. Supplemental lighting was provided with overhead metal halide 1000-Watt lamps as necessary. The plants were employed for testing when they reached the first through fourth true leaf stage.
as §2, with “esters” for “the benzyl ester”, “SC (suspension concentrate),” for “SC,”
(§9) For treatments comprised of formulated compounds, measured amounts of compounds were placed individually in 25 mL glass vials and diluted in a volume of 1.25% (v/v) Agri-Dex® crop oil concentrated to obtain 12× stock solutions. […] Application solutions were prepared by adding an appropriate amount of each stock solution (e.g., 1 mL) and diluted to the appropriate final concentrations with the addition of 10 mL of an aqueous mixture of 1.25% (v/v) crop oil concentrate so that the final spray solutions contained 1.25+/−0.05% (v/v) crop oil concentrate.
(§10) All stock solutions and applications solutions were visually inspected for compound compatibility prior to application. Spray solutions were applied to the plant material with an overhead Mandel track sprayer equipped with a 8002E nozzles calibrated to deliver 187 L/ha over an application area of 0.503 m^2 at a spray height of 18 to 20 inches (46 to 50 cm) above average plant canopy height. Control plants were sprayed in the same manner with the solvent blank.
as §6
(§11) Colby's equation was used to determine the herbicidal effects expected from the mixtures (Colby, S. R. 1967. Calculation of the synergistic and antagonistic response of herbicide combinations. Weeds 15:20-22.).

[6] = test system: SORHA (Sorghum halepense (L.) Pers., johnsongrass); assay: Example III postemergence foliar-applied mixtures, row crop weeds (corn, soybean), greenhouse: SORHA; settings: glyphosate DMA salt (Durango DMA) alone
Experimental: as §1, with “a soil matrix prepared by mixing a loam or sandy loam soil (e.g., 43 percent silt, 19 percent clay, and 38 percent sand, with” for “Sun Gro Metro-Mix® 360 planting mixture, which typically has”, “about 8.1” for “6.0 to 6.8”, “1.5 percent) and calcareous grit in an 80 to 20 ratio. The soil matrix was contained” for “30 percent,”, “square centimters (cm^2) and a volume of 560 cubic” for “square”, “(cm^3).” for “(cm^2).”
Treatments consisted of the acid or esters of 4-amino-3-chloro-5-fluoro-6-(4-chloro-2-fluoro-3-methoxy-phenyl)pyridine-2-carboxylic acid (Compound A), each formulated as an
SC (suspension concentrate), and various herbicidal components alone and in combination. Forms of compound A were applied on an acid equivalent basis.
as §3
For treatments comprised of formulated compounds, measured amounts of compounds were placed individually in 25 mL glass vials and diluted in a volume of 1.5% (v/v) Agri-dex® crop oil concentrate to obtain 6× stock solutions. […] Application solutions were prepared by adding an appropriate amount of each stock solution (typically 2 mL) and diluted to the appropriate final concentrations with the addition of an aqueous mixture of 1.5% (v/v) crop oil concentrate and water so that the final spray solutions contained 1.25% (v/v) crop oil concentrate.
as §5
as §6, with “2” for “3”
The following equation was used to calculate the expected activity of mixtures containing two active ingredients, A and B: […]

[7] = test system: DIGSA (Digitaria sanguinalis (L.) Scop., large crabgrass); assay: Example I postemergence foliar-applied mixtures, direct seeded rice weeds, greenhouse: DIGSA; settings: glyphosate DMA salt (Durango DMA) alone, 210 gae/ha
Experimental: as §8
as §2, with “esters” for “the benzyl ester”, “SC (suspension concentrate),” for “SC,”
as §9, §10, §6, §11

## O=C(O)CNCP(=O)(O)O [Glyphosate DMA Salt, N-(phosphonomethyl)glycine, reference compound]
[1]; 210 gae/ha
  VisualWeed Control (%) - 18 DAA SETFA Obs: 10%
[1]; 420 gae/ha
  VisualWeed Control (%) - 18 DAA SETFA Obs: 90%
[2]
  Visual Weed Control (%) - 18 DAA DIGSA Obs: 40%
[3]; 210 gae/ha
  Visual Weed Control (%) - 18 DAA VIOTR Obs: 60%
[3]; 420 gae/ha
  Visual Weed Control (%) - 18 DAA VIOTR Obs: 85%
[4]; 420 gae/ha
  Visual Weed Control (%) - 18 DAA CHEAL Obs: 0%
[4]; 840 gae/ha
  Visual Weed Control (%) - 18 DAA CHEAL Obs: 30%
[5]
  Visual Weed Control (%) - 21 DAA IPOHE Obs: 30%
[6]; 105 gae/ha
  Visual Weed Control (%) - 16 DAA SORHA Obs: 0%
[6]; 210 gae/ha
  Visual Weed Control (%) - 16 DAA SORHA Obs: 10%
[6]; 420 gae/ha
  Visual Weed Control (%) - 16 DAA SORHA Obs: 25%
[7]
  Visual Weed Control (%) - 21 DAA DIGSA Obs: 75%
